Measurements from BindingDB's records for doi:10.1002/cbic.200800600 (Parc De Recerca Biomedica De Barcelona, 2009).

Experiments:
Assay in all cases: In Vitro Kinase Assay
Settings in all cases: pH 7.5
Angiopoietin-1 receptor = Angiopoietin-1 receptor (Homo sapiens, UniProt Q02763)
Method: (§1) The IC50 for the different compounds was determined with Invitrogen Z'-LYTE kinase assay kit Ser/Thr 1 peptide PV3174 by following the manufacturer's instructions. To determine the IC50 of receptor tyrosine kinase, an assay based on the ELISA principle with kinases from Biomol (N-terminally fused to GST), POD-coupled antibody from Calbiochem (PY20)) and BM chem chemiluminescence ELISA substrate from Roche was performed.

Aurora kinase A = target: T1, Aurora kinase A (Homo sapiens, UniProt O14965)
T1 sequence (O14965 whole entry): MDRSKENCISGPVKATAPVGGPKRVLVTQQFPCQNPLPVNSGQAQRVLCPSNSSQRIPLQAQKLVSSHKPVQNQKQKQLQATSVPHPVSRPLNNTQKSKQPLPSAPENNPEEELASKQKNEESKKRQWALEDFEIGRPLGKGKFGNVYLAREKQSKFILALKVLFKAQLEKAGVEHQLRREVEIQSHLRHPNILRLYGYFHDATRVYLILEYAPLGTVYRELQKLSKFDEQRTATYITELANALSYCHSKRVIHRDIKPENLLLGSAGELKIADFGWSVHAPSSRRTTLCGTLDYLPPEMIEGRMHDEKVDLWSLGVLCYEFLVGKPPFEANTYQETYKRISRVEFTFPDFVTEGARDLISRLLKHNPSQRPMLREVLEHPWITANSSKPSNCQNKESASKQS
Method: as §1

Aurora kinase B = Aurora kinase B (Homo sapiens, UniProt Q96GD4)
Chain of Aurora kinase B (Q96GD4 whole entry): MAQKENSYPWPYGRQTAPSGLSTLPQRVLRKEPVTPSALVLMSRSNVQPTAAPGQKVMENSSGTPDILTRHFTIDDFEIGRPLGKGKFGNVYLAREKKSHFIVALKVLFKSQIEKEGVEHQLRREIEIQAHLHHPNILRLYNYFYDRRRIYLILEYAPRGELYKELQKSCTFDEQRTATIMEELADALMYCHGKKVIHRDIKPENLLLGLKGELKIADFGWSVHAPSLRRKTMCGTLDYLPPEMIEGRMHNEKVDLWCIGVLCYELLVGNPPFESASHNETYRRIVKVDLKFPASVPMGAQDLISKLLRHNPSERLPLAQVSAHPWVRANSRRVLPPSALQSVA
Method: as §1

[1] = target: Epidermal growth factor receptor (Homo sapiens, UniProt P00533)
Chain of Epidermal growth factor receptor (P00533 whole entry): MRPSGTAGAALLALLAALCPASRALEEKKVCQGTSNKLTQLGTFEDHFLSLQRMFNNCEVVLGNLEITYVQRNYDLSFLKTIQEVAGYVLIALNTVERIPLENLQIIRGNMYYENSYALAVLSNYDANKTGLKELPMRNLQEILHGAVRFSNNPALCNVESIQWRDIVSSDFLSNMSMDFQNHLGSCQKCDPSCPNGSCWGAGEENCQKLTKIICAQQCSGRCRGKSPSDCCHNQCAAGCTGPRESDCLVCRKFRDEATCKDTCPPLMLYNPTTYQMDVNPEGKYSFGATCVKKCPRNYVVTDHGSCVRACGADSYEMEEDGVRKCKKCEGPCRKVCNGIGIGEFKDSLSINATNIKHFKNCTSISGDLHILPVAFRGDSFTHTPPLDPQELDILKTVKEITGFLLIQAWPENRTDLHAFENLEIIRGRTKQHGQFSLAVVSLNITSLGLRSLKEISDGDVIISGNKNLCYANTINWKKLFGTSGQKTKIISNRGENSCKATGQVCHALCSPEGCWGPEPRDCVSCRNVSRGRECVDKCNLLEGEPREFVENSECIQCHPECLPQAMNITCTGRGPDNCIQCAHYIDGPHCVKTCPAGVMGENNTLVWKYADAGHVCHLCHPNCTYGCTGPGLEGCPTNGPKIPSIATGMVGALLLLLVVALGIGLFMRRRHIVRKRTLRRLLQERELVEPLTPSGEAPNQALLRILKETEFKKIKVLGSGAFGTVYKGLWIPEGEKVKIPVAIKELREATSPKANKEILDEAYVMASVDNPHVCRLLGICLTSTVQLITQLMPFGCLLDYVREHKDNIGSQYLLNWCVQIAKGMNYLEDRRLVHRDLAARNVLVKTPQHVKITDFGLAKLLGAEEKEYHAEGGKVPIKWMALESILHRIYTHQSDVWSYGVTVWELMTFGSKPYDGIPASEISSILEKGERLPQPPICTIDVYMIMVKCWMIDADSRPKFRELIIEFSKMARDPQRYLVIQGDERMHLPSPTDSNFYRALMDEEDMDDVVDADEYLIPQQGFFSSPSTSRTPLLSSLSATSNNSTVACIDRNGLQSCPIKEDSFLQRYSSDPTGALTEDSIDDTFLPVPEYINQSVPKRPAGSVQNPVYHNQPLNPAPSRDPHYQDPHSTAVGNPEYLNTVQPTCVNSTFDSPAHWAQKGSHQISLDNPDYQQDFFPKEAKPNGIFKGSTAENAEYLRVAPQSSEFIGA
Method: as §1

[2] = target: Fibroblast growth factor receptor 1 (Homo sapiens, UniProt P11362)
Chain of Fibroblast growth factor receptor 1 (P11362 whole entry): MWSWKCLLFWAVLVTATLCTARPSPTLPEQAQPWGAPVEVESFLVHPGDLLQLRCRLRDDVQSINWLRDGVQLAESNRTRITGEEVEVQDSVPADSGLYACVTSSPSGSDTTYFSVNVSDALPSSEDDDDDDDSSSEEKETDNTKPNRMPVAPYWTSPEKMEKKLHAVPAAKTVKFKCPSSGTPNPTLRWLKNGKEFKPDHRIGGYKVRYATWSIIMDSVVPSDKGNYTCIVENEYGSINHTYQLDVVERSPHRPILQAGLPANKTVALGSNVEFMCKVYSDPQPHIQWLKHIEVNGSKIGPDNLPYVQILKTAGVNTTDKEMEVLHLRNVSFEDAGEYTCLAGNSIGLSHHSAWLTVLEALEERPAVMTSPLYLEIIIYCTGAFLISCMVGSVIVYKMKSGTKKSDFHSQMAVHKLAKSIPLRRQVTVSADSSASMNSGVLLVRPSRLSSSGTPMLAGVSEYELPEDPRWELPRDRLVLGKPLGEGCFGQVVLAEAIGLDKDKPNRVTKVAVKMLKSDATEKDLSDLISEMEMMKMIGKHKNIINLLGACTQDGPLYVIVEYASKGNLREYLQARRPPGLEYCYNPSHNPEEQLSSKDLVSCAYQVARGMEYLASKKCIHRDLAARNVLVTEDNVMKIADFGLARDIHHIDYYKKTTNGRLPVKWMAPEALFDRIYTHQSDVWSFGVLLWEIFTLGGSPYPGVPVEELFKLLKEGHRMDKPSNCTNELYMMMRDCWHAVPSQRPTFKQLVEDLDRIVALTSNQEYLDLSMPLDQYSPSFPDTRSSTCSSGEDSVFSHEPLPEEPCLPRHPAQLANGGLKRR
Method: as §1

[3] = target: Insulin-like growth factor 1 receptor (Homo sapiens, UniProt P08069)
Chain of Insulin-like growth factor 1 receptor (P08069 31-736 limits assumed): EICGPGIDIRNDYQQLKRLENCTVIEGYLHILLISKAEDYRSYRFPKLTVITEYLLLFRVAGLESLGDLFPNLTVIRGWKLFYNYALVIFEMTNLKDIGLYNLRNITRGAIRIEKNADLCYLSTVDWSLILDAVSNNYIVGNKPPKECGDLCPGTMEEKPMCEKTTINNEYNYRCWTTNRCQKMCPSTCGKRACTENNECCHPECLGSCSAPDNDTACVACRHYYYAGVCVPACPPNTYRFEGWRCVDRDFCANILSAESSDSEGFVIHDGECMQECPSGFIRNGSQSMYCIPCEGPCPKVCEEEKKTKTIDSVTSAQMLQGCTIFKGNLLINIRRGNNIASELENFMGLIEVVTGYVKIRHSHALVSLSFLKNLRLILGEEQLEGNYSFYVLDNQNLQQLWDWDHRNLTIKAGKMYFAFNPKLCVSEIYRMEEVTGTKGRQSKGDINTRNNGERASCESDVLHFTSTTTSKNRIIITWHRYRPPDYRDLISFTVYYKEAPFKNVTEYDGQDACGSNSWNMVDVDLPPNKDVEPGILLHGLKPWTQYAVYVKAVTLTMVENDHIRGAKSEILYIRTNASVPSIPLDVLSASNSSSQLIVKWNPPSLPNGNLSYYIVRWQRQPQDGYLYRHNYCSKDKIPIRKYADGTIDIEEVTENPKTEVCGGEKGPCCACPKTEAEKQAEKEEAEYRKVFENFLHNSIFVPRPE
Chain of Insulin-like growth factor 1 receptor (P08069 741-1367 limits assumed): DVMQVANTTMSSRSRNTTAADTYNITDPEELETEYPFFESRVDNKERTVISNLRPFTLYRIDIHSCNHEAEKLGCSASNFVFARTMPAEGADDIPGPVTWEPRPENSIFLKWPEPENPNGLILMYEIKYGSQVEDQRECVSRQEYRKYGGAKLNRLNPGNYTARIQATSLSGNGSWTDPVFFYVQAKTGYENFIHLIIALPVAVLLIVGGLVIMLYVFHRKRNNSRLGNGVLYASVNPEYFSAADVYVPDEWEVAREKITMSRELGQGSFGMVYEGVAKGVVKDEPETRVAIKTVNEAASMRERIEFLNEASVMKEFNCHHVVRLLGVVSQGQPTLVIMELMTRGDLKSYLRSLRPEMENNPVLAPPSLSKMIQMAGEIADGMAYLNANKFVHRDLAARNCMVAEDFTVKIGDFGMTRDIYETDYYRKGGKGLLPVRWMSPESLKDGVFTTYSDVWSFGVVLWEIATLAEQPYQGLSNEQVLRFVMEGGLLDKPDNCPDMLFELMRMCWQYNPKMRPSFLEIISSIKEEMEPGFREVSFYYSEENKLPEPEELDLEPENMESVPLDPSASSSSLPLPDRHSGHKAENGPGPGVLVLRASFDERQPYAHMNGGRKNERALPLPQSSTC
Method: as §1

[4] = target: Vascular endothelial growth factor receptor 2 (Homo sapiens, UniProt P35968)
Method: as §1

[5] = target: Vascular endothelial growth factor receptor 3 (Homo sapiens, UniProt P35916)
Method: as §1

Chain of Angiopoietin-1 receptor (Q02763 whole entry, the tested form may be a part): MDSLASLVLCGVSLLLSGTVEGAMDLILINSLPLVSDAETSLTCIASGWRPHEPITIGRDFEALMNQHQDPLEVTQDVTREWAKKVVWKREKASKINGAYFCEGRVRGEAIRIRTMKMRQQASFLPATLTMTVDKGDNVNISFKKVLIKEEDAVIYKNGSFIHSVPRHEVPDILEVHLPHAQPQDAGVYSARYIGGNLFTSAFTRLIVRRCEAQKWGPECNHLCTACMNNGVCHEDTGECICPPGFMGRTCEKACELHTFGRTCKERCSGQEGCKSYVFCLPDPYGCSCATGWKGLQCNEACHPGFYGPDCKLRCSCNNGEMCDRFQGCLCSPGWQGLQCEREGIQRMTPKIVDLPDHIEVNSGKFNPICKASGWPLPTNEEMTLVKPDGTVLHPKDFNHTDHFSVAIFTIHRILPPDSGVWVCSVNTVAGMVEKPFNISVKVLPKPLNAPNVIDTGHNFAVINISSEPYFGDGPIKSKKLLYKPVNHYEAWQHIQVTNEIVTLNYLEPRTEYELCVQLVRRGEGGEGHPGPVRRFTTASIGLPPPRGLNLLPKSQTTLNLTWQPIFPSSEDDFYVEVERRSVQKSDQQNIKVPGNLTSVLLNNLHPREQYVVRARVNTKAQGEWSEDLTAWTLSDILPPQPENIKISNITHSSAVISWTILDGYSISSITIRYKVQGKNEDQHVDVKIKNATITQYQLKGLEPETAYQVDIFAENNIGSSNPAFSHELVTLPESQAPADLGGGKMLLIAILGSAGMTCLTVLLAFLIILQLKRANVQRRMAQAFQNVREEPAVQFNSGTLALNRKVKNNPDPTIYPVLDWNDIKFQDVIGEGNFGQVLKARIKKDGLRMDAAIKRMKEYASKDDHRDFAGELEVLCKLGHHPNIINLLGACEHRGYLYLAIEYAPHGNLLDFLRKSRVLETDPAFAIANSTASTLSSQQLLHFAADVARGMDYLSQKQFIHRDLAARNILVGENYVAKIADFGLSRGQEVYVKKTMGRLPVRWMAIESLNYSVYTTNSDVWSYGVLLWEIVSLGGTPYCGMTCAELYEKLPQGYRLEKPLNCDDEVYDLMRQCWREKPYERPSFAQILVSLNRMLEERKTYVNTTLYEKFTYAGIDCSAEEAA

SMILES	IC50 (Angiopoietin-1 receptor) [µM]	IC50 (Aurora kinase A) [µM]	IC50 (Aurora kinase B) [µM]	IC50 [1] [µM]	IC50 [2] [µM]	IC50 [3] [µM]	IC50 [4] [µM]	IC50 [5] [µM]
CC(C)Nc1nc(-c2ccco2)nc2ccc(C#CCO)cc12 [TC-28]	> 100	2.7	> 100	> 100	> 100	> 100	> 100	> 100
CC(C)Nc1nc(-c2ccco2)nc2ccc(C=CC(C)(C)O)cc12 [TC-34]	> 100	1.9	16.2	> 100	> 100	41.5	–	4.2
